Results as given in US12404332B2, “Methods for diagnosing and treating cancers” (Research Development Foundation, priority 2020, dated 2025).
“Also recorded” adds a separate entry of the source.

How the values were obtained:
PD-L1 [1] = assay: Tumor cell PD-L1 depletion by drugs (flow cytometry, immunoblot); format: cell-based, human and mouse; conditions: summary statement
Protocol: High throughput Screening: B16 PD-L1 RFP cells were treated with 2.5 and 10 μM compounds from the Prestwick and LOPAC Libraries for 48 hours using the Agilent Bravo liquid pipetting platform. Then, cells were washed with PBS, and fixed with 4% paraformaldehyde (Electron Microscopy Sciences, Hatsfield, PA, Cat 15714S) and labeled with 2 μg/ml DAPI, (Molecular Probes, Cat D1306) and 1 μg/ml Cell Mask-Blue (Invitrogen, Cat. H32720). Plates were then imaged using the Operetta High Content Imaging System, Perkin Elmer, Waltham (DAPI and Cell Mask Blue, Ex 360-400, Em 410-480), and the RFP channels (Ex 520-550, Em 560-630) channels. Agents effecting ≥2-fold PD-L1 reduction in the RFP reporter without loss of ≥20% cell viability were candidate PD-L1 depletion agents.
Flow cytometry: Mice were sacrificed by cervical dislocation after induction of deep isoflurane anesthesia. ID8agg tumors were collected and cells were stained as described (Derup et al., 2020) using LSR II hardware and analyzed by FACS Diva (BD Bioscience) or Flow Jo software (Flow Jo, LLC). Anti-mouse (clone 10F.9G2) and human (clone 29E.2A3) PD-L1 [both PE/Cy7, Cat #124314 (mouse) 329718 (human)] were matched with isotype control. Apoptosis assessment used Annexin V and propidium iodide (Thermo Scientific) per manufacturer instruction.
Western blotting and immunoprecipitation: To prepare whole cell lysates, cells were harvested and lysed in RIPA (radioimmunoprecipitation assay) buffer plus 1 mM phenylmethylsulphonyl fluoride and Halt protease/phosphatase inhibitor cocktail (Thermo Scientific) at 4° C. Protein concentrations were measured by BCA Protein Assay Kit (Thermo Scientific). Protein was run on precast 4-15% sodium dodecyl sulfate polyacrylamide gels (Bio-Rad), transferred to polyvinylidene fluoride membranes (GE Water and Process Technologies), and then blocked in 5% non-fat milk for 1 hour at room temperature. The membranes were then incubated with 1:1000 diluted primary antibodies against indicated proteins (Cell Signaling). Specific antibody binding was detected by chemiluminescence using Western Lightening Plus regent (Perkin Elmer). Cells for (co) immunoprecipitation experiments were seeded in 15-cm dishes and cultured as described, using 6 million cells per immunoprecipitation reaction. For protein ubiquitination, cells were lysed in denaturing buffer (50 mM Tris-HCl, 0.5 mM EDTA and 1% SDS) followed by heating at 95° C. for 10 minutes and then quenched with 9 volumes of quenching buffer (0.5% Triton X-100, 20 mM Tris-HCl (pH 8.0), 137 mM NaCl, 10% glycerol, 2 mM EDTA). Protease inhibitor cocktail (Roche) was added fresh to all buffers. Cell lysates were incubated on a rotator for 30 minutes at 4° C., and then centrifuged at 20,000 g for 15 minutes at 4° C. Supernatants were subsequently incubated with anti-PD-L1 antibody overnight and processed using Dynabeads Protein G for Immunoprecipitation (Thermo Fisher Scientific). The final eluate was processed and Western blotting was performed.

ID8agg cells = assay: Chk1 inhibitor synthetic lethality with ceftazidime, ID8agg cells; format: cell-based, mouse
Protocol: (§1) Additional experiments were performed, as follows. MB49 were plated at 2,000 cells/well in 96 well flat bottom plates and treated with PD-L1 depleting drugs, olaparib (2.5 μM), and combination for 96 hours. RT4 were plated at 2,000 cells/well in 96 well flat bottom plates and treated with cefepime, rabusertib (1 μM), praxasertib, or combination for 96 hours. ID8agg, 4T1, and B16 cells were plated on fibronectin at 500 cells/well and treated with cefepime, rabusertib, or combination for 96 hours. Normalized treatment combination to DDR inhibitor alone, and PD-L1 depleting drug to vehicle alone (DMSO) were evaluated.

RT4 cells = assay: Chk1 inhibitor synthetic lethality with beta-lactam antibiotics, RT4 cells; format: cell-based, human
Protocol: as §1

[2] = test system: TpN^61R derived CD274^+/+ or CD274^−/− melanoma tumors; assay: Growth of de novo PD-L1 null versus replete melanoma in C57BL/6J mice; format: in vivo, mouse; conditions: C57BL/6J wild type mice
From the text: (§2) FIGS. 26A-H: De novo PD-L1^KO tumors phenocopy important aspects of genetic PD-L1 depletion in established tumors. FIG. 26A, Melanoma-free survival of melanocyte specific CD274^fl,fl TpN^61R (KO) versus littermate (WT) autochthonous mice under conditions shown. FIG. 26B, Validation of PD-L1 expression by immunoblot (IB) of melanoma cells derived from UV induced (4.5 Kj/m^2) WT (CD274^+/+) or melanocyte specific CD274^KO (CD274^−/−) mice±in vitro interferon (IFN)-γ treatment. Viability curves of CD274^+/+ versus CD274^−/− cells treated with the selective Chk1 inhibitors FIG. 26C, prexasertib […] or FIG. 26D, rabusertib (LY2603618) in vitro at indicated concentrations. FIG. 26E, IB analysis of PD-L1, ATM, Chk2, and γH2AX of vehicle or rabusertib-treated CD274^+/+ and CD274^−/− cell lines. FIGS. 26F-H, Tumor growth curves in WT C57BL/6J mice (n=10 tumors/group) challenged with UV induced TpN^61R derived CD274^+/+ or CD274^−/− melanoma cells and treated with rabusertib (Chk1i, LY2603618) on the indicated treatment schedule. P values, two-way ANOVA.

[3] = test system: RT4 human bladder cancer cells; assay: In vitro viability (MTT) of CTRL versus PD-L1^KO RT4 cells; format: cell-based
Protocol: (§3) Cells (1×10^3) were plated in 96 well plastic culture plates in respective medium and treated for 5 days with DDRi or 3 days with gemcitabine at indicated concentrations. Drug concentrations were carefully optimized in preliminary work not shown. Cell viability was by MTT (3-(4,5-dimethylthiazol-2-yl)-2,5-diphenyl tetrazolium bromide) at 5 mg/ml. Absorbance was measured at 540 nm. Results are presented as a mean+/−SEM of ≥6 replicates. Total cells and viability were confirmed using a Vi-Cell-XR (Beckman Coulter).

[4] = test system: ID8agg murine ovarian cancer cells; assay: In vitro viability (MTT) of CTRL versus PD-L1^KO ID8agg cells; format: cell-based, mouse; conditions: monotherapy, listed as Chk1i
Protocol: as §3

[5] = test system: CTRL or PD-L1^lo 4T1 tumors; assay: 4T1 tumor growth in NSG mice; format: in vivo, mouse; conditions: PD-L1^lo but not control 4T1 tumors, NSG females
Protocol: NSG mice were challenged with MB49 (0.3×10^6 cells) subcutaneously on opposite flanks. Olaparib (daily 25 mg/kg, 4% DMSO) was injected intraperitoneally on days 3-11. 4T1 (0.5×10^6 cells) were injected into mammary fat pads of NSG mice with Matrigel (1:1, Corning). Rabusertib (LY2602618, 4% DMSO) was administered intraperitoneally on day 3 (10 mg/kg) and days 10 and 17 (1 mg/kg).

[6] = test system: B16 murine melanoma cells; assay: In vitro viability (MTT) of CTRL versus PD-L1^KO B16 cells; format: cell-based, mouse
Protocol: as §3

[7] = test system: 4T1 murine breast cancer cells; assay: In vitro viability (MTT) of CTRL versus PD-L1^lo 4T1 cells; format: cell-based, mouse; conditions: listed as Chk1i
Protocol: as §3

PD-L1 [8] = assay: PD-L1 after DNA damaging agents; format: cell-based
4T1 tumors = 4T1 tumors in mice treated with Chk1i ± αPD-L1; format: in vivo, mouse; conditions: wild type mice
Protocol: (§4) FIGS. 27A-H: Anti-PD-L1 antibodies mimic genetic PD-L1 depletion to impair tumor cell-intrinsic DDR signals and promote sensitivity to Chk1 inhibition in vitro and in vivo. Cell viability of FIG. 27A, CTRL and FIG. 27B, PD-L1^KORT4 cells treated with LY2603618 (Chk1 inhibitor) as shown plus IgG1 isotype or atezolizumab (atezo, 3 μg/ml) for 72 hours in vitro. Mean+SEM, n=6 replicates, ***, P<0.001, unpaired t-test. FIG. 27C, Immunoblot (IB) analysis of ATM, Chk2, γH2AX and vinculin (VINC) of RT4 cells treated in vitro with isotype, atezolizumab, Chk1i, or their combination. FIG. 27D, Viability of 4T1 cells as in panel A substituting anti-murine PD-L1 and isotype controls. FIG. 27E, IB of 4T1 as in panel FIG. 27C. FIG. 27F, Tumor curves of NSG mice (n=10 tumors/group) challenged with 4T1 tumor cells and treated with Chk1i±αPD-L1. FIG. 27G, Tumor curves and FIG. 27H, tumor weights in WT […] mice challenged and treated as in panel FIG. 27F. P values, two-way ANOVA.

[9] = test system: CTRL and PD-L1^KO RT4 cells; assay: Viability of RT4 cells treated with Chk1 inhibitor plus atezolizumab; format: cell-based, human; conditions: in vitro, absence of immune cells
Protocol: as §4

[10] = test system: human MDA-MB-231 triple negative breast cancer cells; assay: In vitro sensitivity of PD-L1^lo versus CTRL MDA-MB-231 cells; format: cell-based
[11] = test system: UV induced TpN^61R derived CD274^+/+ or CD274^−/− melanoma cells; assay: Viability of de novo Nras CD274^+/+ versus CD274^−/− melanoma cells; format: cell-based, mouse; conditions: in vitro
From the text: as §2

SMILES	expression of PD-L1 in cancer cells (PD-L1 [1])	synthetic lethality with Chk1i (ID8agg cells)	PD-L1 dependence of synthetic lethality (RT4 cells; FIG. 47B)	synthetic lethality with Chk1i (RT4 cells; RT4 cells, Chk1i rabusertib)	control of in vivo growth, PD-L1 null versus PD-L1 replete tumors [2]	cytotoxicity in PD-L1^KO versus control RT4 cells [3]	sensitivity of PD-L1^KO versus control RT4 cells to the agent ([3]; monotherapy)	sensitivity of PD-L1^KO versus control ID8agg cells to the agent [4]	tumor sensitivity to single agent treatment [5]	cytotoxicity against PD-L1^KO versus control B16 cells [6]	sensitivity of PD-L1^lo versus control 4T1 cells to the agent [7]	PD-L1 after DNA damaging agent (PD-L1 [8])	4T1 tumors in vivo (4T1 tumors)	viability of RT4 cells, single agent [9]	sensitivity of PD-L1^lo versus CTRL MDA-MB-231 cells [10]	synthetic lethality in induced PD-L1^KO tumors [11]
CC(C)(O/N=C(\C(=O)N[C@@H]1C(=O)N2C(C(=O)[O-])=C(C[n+]3ccccc3)CS[C@H]12)c1csc(N)n1)C(=O)O [ceftazidime]	decreased expression of PD-L1	induce synthetic lethality	PD-L1 dependent	induce synthetic lethality												
Cc1cnc(NC(=O)Nc2cc(Br)c(C)cc2OC[C@@H]2CNCCO2)cn1 [rabusertib]					controlled in vivo growth significantly better	over 15 fold	striking cytotoxicity	enhanced sensitivity	particularly sensitive	striking cytotoxicity	significantly growth inhibited; also recorded: enhanced sensitivity	increased PD-L1	failed to benefit	expected dose-response toxicity	more sensitive	exhibited synthetic lethality
